Test results: patent publication US20250326718A1, “4-PHENYL-2-PYRROLIDINONES AND METHODS OF USING THEREOF” (North Carolina State University, priority 2022, published 2025)
≈ marks a conversion by molar mass, not a printed value. Like-named read-outs stand apart in the source and are kept apart here.

Tests used:
Format in all cases: cell-based
MRSA (ATCC 33591) = experiment: Broth microdilution MIC, MRSA ATCC 33591; conditions: Staphylococcus aureus; Tables 2-4; standardized conditions
Description: General information—Biological Assays. Methicillin-resistant and methicillin sensitive Staphylococcus aureus (MRSA and MSSA respectively) strains were obtained from the Laboratory of Professor Christian Melander (NCSU) (ATCC BAA 44 and 33591) and Dr. Jessica Gilbertie (ATCC 25923). Bacteria were kept in frozen stocks on glycerol at −80° C. until use. Bacteria was streaked onto tryptic-soy agar for colony isolation. Mueller-Hinton broth (MHB, 211443-BD), tryptic soy broth (TSB, Remel: R455052) and D-glucose (CAS: 492-62-6) were purchased from Fisher Scientific. Tryptic soy agar (TSA, cat. #22091) and Linezolid (cat. #P70014) were purchased from Sigma-Aldrich. Bacteria for biofilm inhibition were cultured overnight in TSB-G (tryptic soy broth with 0.5% glucose supplement) in 96 well plates. All assays were run in duplicate and repeated at least two separate times for MIC assays and at least three separate times for biofilm inhibition. All compounds were dissolved in molecular biology grade DMSO as 10 mM stock solutions. Optical densities were measured using a Thermo Scientific Genesys 20 spectrophotometer. Data for biofilm inhibition were collected using a BioTek ELx808 Microplate Reader. All graphs were generated and analyzed using GraphPad Prism 7.
Broth microdilution method for determination of minimum inhibitory concentrations. As prescribed by the Clinical and Laboratory Standards Institute (CLSI) M07-A8, Vol. 29 (2) MSSA (ATCC 25923) and MRSA (ATCC BAA 44 and 33591) was grown in MHB for 6-8 h; this culture was used to inoculate fresh MHB (5×10^5 CFU/mL). The resulting bacterial suspension was aliquoted (1 mL) into 1.5 mL Eppendorf tubes and compound was added from a 10 mM DMSO stock to achieve the desired initial starting concentration (typically 128 μg/mL). Linezolid (from a 10 mM DMSO stock) was used as a positive control. Inoculated media not treated with compound served as the negative control. The MIC was determined by microbroth dilution following the CLSI guidelines. The MIC was defined as the lowest concentration of antibiotic with no visible growth. The plate was sealed and incubated under stationary conditions at 37° C.
The antimicrobial activity of Compounds 1-15 was assessed initially against MSSA (ATCC 25923) and MRSA (ATCC 33591) strains. It was observed that almost all these compounds precipitated in aqueous solution at concentrations equal or higher than 8-16 μg/mL. In order to obtain preliminary results on the antimicrobial activity for these compounds, the standard conditions of the antimicrobial assays used where modified to favor the water solubility of these compounds.

MSSA (ATCC 25923) = experiment: Broth microdilution MIC, MSSA ATCC 25923; conditions: Staphylococcus aureus; Tables 2-4; standardized conditions; read-out: MIC (S. aureus 25923)
S. aureus 29213 = experiment: Broth microdilution MIC, S. aureus 29213; conditions: Staphylococcus aureus
[1] = Table 2, standardized conditions, read-out: MIC (S. aureus 25913)
[2] = Tables 3-4, standardized conditions, read-out: MIC (S. aureus 29213)

Compound | MIC (MRSA (ATCC 33591)) | MIC (MSSA (ATCC 25923)) | MIC (S. aureus 29213; [1]) | MIC (S. aureus 29213; [2])
CCC1C(c2ccc(C(F)(F)F)cc2)=C(O)C(=O)N1CCN1C(=O)C(O)=C(c2ccc(C(F)(F)F)cc2)C1CC (stereo not drawn) [Compound 25, 1,1′-(Ethane-1,2-diyl)bis(5-ethyl-3-hydroxy-4-(4-(trifluoromethyl)phenyl)-1,5-dihydro-2H-pyrrol-2-one)] | > 128 µg/mL | > 128 µg/mL | > 128 µg/mL | –
CCC1C(c2ccc(C(F)(F)F)cc2)=C(O)C(=O)N1CCCCCCN1C(=O)C(O)=C(c2ccc(C(F)(F)F)cc2)C1CC (stereo not drawn) [Compound 27, 1,1′-(Hexane-1,6-diyl)bis(5-ethyl-3-hydroxy-4-(4-(trifluoromethyl)phenyl)-1,5-dihydro-2H-pyrrol-2-one)] | > 128 µg/mL | > 128 µg/mL | > 128 µg/mL | –
CCC1C(c2ccc(C(F)(F)F)cc2)=C(O)C(=O)N1CCOCCN1C(=O)C(O)=C(c2ccc(C(F)(F)F)cc2)C1CC (stereo not drawn) [Compound 30, 1,1′-(Oxybis(ethane-2,1-diyl))bis(5-ethyl-3-hydroxy-4-(4-(trifluoromethyl)phenyl)-1,5-dihydro-2H-pyrrol-2-one)] | > 128 µg/mL | > 128 µg/mL | > 128 µg/mL | –
CCC1C(c2ccc(C(F)(F)F)cc2)=C(O)C(=O)N1CCSCCN (stereo not drawn) [Compound 36] | > 128 µg/mL | > 128 µg/mL | – | > 128 µg/mL
CCC1C(c2ccc(C(F)(F)F)cc2)=C(O)C(=O)N1CCSCCN1C(=O)C(O)=C(c2ccc(C(F)(F)F)cc2)C1CC (stereo not drawn) [Compound 37, 1,1′-(thiobis(ethane-2,1-diyl))bis(5-ethyl-3-hydroxy-4-(4-(trifluoromethyl)phenyl)-1,5-dihydro-2H-pyrrol-2-one)] | > 256 µg/mL | > 256 µg/mL | – | > 256 µg/mL

Continued, values first:

MIC (MRSA (ATCC 33591)) | MIC (MSSA (ATCC 25923)) | MIC (S. aureus 29213; [1]) | MIC (S. aureus 29213; [2]) | Compound
> 128 µg/mL | > 128 µg/mL | > 128 µg/mL | – | CCC1C(c2ccc(C(F)(F)F)cc2)=C(O)C(=O)N1CCCCN1C(=O)C(O)=C(c2ccc(C(F)(F)F)cc2)C1CC (stereo not drawn) [Compound 26, 1,1′-(Butane-1,4-diyl)bis(5-ethyl-3-hydroxy-4-(4-(trifluoromethyl)phenyl)-1,5-dihydro-2H-pyrrol-2-one)]
32 µg/mL (≈ 51.4 µM) | 8 µg/mL (≈ 12.8 µM) | 32 µg/mL (≈ 51.4 µM) | – | CCC1C(c2ccc(C(F)(F)F)cc2)=C(O)C(=O)N1C1CCC(N2C(=O)C(O)=C(c3ccc(C(F)(F)F)cc3)C2CC)CC1 (stereo not drawn) [Compound 28, 1,1′-((1r,4r)-Cyclohexane-1,4-diyl)bis(5-ethyl-3-hydroxy-4-(4-(trifluoromethyl)phenyl)-1,5-dihydro-2H-pyrrol-2-one)]
> 128 µg/mL | > 128 µg/mL | > 128 µg/mL | – | CCC1C(c2ccc(C(F)(F)F)cc2)=C(O)C(=O)N1CCOCCOCCOCCN1C(=O)C(O)=C(c2ccc(C(F)(F)F)cc2)C1CC (stereo not drawn) [Compound 31, 1,1′-(((Oxybis(ethane-2,1-diyl))bis(oxy))bis(ethane-2,1-diyl))bis(5-ethyl-3-hydroxy-4-(4-(trifluoromethyl)phenyl)-1,5-dihydro-2H-pyrrol-2-one)]
64 µg/mL (≈ 97.9 µM) | 8 µg/mL (≈ 12.2 µM) | 64 µg/mL (≈ 97.9 µM) | – | CCC1C(c2ccc(C(F)(F)F)cc2)=C(O)C(=O)N1CCCCNCCCN1C(=O)C(O)=C(c2ccc(C(F)(F)F)cc2)C1CC (stereo not drawn) [Compound 32, 5-Ethyl-1-(3-((4-(2-ethyl-4-hydroxy-5-oxo-3-(4-(trifluoromethyl)phenyl)-2,5-dihydro-1H-pyrrol-1-yl)butyl)amino)propyl)-3-hydroxy-4-(4-(trifluoromethyl)phenyl)-1,5-dihydro-2H-pyrrol-2-one]
> 128 µg/mL | > 128 µg/mL | – | > 128 µg/mL | CCC1C(c2ccc(C(F)(F)F)cc2)=C(O)C(=O)N1CCNCCNCCNCCN (stereo not drawn) [Compound 34]
64 µg/mL (≈ 160 µM) | 64 µg/mL (≈ 160 µM) | – | 64 µg/mL (≈ 160 µM) | CCC1C(c2ccc(C(F)(F)F)cc2)=C(O)C(=O)N1CCN(CCN)CCN (stereo not drawn) [Compound 38, 1-(2-(bis(2-aminoethyl)amino)ethyl)-5-ethyl-3-hydroxy-4-(4-(trifluoromethyl)phenyl)-1,5-dihydro-2H-pyrrol-2-one]
